The source of these data is article PMC6405930, “Conservation of the Amyloid Interactome Across Diverse Fibrillar Structures” (Scientific Reports, 2019).

Series [1] addresses Ab1 fibrils (Aβ(1–40)) (Homo sapiens, UniProt P05067). As to the kind of experiment: Fibril titration with ThT (fluorescence). Type of series: binding. Here is the method:
(§1) Fibril material (7.5 μg) was set up in 100 μL phosphate buffer in a 96 well half-area NBS plate (NUNC/Terma).

Series [2] has as its target Ab2 fibrils (Aβ(1–40)) (Homo sapiens, UniProt P05067). Briefly: Fibril titration with ThT (fluorescence). It is filed as binding. As to the method:
as §1

The target in series [3] is T1, C-36 fibrils (Homo sapiens, UniProt P01009).
T1 construct: the 36 residue C-terminal fragment of α1-antitrypsin (C-36)
T1 sequence (P01009 383-418 limits assumed): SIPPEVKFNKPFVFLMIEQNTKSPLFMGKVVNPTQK
Briefly: Fibril titration with ThT (fluorescence). It is filed as binding. As to the method: as §1

The subject of series [4] is chymotrypsinogen amorphous aggregates. Briefly: Fibril titration with ThT (fluorescence). Type of series: binding. Particulars: TCA-induced amorphous aggregates. Here is the method:
as §1

The target of series [5] is T2, αSN fibrils (Homo sapiens, UniProt P37840). As to the kind of experiment: Fibril titration with ThT (fluorescence). Particulars: titration experiment. It is filed as binding. As to the method:
as §1

Series [6] concerns the target T3, glucagon fibrils (Homo sapiens, UniProt P01275).
T3 construct: fibrils of the peptide hormone glucagon
As to the kind of experiment: Fibril titration with ThT (fluorescence). Particulars: 7.5 μg fibril material, single-site binding model. Here is the method:
as §1

The subject of series [7] is T4, FAS4 AD aggregates.
T4 construct: a mutated version of the FAS1-4 domain of TGFBIp
As to the kind of experiment: Fibril titration with ThT (fluorescence). Particulars: ThT mixed with FAS4 AD aggregates. It is filed as binding, human. As to the method:
as §1

Series [8] relates to T5, Ab1 fibrils.
T5 construct: Synthetic amyloid β peptide 1–40 was purchased from Caslo Aps (Lyngby, Denmark); purchased Caslo Aps (Lyngby, Denmark); host or cells: synthetic peptide
As to the kind of experiment: Determination of the binding capacity (dye depletion from supernatant). Also on record: species or system human. Particulars: 2 nmol dye (20 µM) with 10 μg fibril material, one hour. Here is the method: (§2) Control samples (without fibril material) were prepared similarly. Fibrils and fibril-bound ligand were pelleted by centrifugation (17,000 g, 30 min) and the supernatant (90 μL) was transferred to a 96 well half-area plate (Corning 3881).

Series [9] concerns T6, Ab2 fibrils.
T6 construct: Two structurally distinct fibrils of the Aβ(1–40) peptide associated with AD
The description is as above. Also on record: species or system human. Particulars: 2 nmol dye (20 µM) with 10 μg fibril material, one hour. Here is the method: as §2

Series [10] deals with T1, C-36 fibrils. Described as above. As to conditions: 2 nmol dye (20 µM) with 10 μg fibril material, one hour. Here is the method:
as §2

The target of series [11] is T3, glucagon fibrils. The description is as above. Particulars: 2 nmol dye (20 µM) with 10 μg fibril material, one hour. Here is the method:
as §2

Series [12] addresses T2, αSN fibrils. The description is as above. As to conditions: 2 nmol dye (20 µM) with 10 μg fibril material, one hour. As to the method: as §2
Series [13] concerns T5, Ab1 fibrils. Briefly: Fibril incubation with plasma, quantitative MS/MS of bound proteins. Type of series: binding, human. As to conditions: 50:1 w/w plasma protein:fibril. In outline: (§3)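 Fibrils (20 μg) incubated 1 h at room temperature with plasma (500 μg) or CSF (40 μg) protein in PBS/5 mM EDTA; pellets washed, guanidinium-dissolved, trypsin-digested. Label-free LC-MS/MS XIC of top three peptides, normalized to total ion intensity, averaged over nine runs; fibril-free controls.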

Series [14] has as its system T6, Ab2 fibrils. The description is as above. Type of series: binding, human. As to conditions: 50:1 w/w plasma protein:fibril.
The target of series [15] is T3, glucagon fibrils. Described as above. Particulars: 50:1 w/w plasma protein:fibril. It is filed as binding.
For series [16], the target named is T1, C-36 fibrils. Described as above. It is filed as binding. As to conditions: 50:1 w/w plasma protein:fibril.
The target of series [17] is T2, αSN fibrils. Described as above. As to conditions: 50:1 w/w plasma protein:fibril. Type of series: binding. In outline: as §3
Series [18] deals with T7, FAS4-AD aggregates.
T7 construct: aggregates of a mutated version of the FAS1-4 domain of TGFBIp
The description is as above. Particulars: 50:1 w/w plasma protein:fibril. Type of series: binding, human. The essentials: as §3

The subject of series [19] is fibril systems (Ab1, Ab2, glucagon, αSN and C-36). As to the kind of experiment: Fibril incubation with plasma, quantitative MS/MS, span over the fibril systems. Type of series: binding, human. Here is the method: (§4) Plasma and CSF solutions were centrifuged (40,000 g, 20 min) to remove any aggregates. The protein concentration was determined using 280 nm absorbance assuming 1 Abs = 1 mg/mL. […] Control samples (without fibril material) were prepared similarly. All samples were incubated at room temperature for one hour under gentle agitation. Fibrils and fibril-bound proteins were pelleted by centrifugation at 17,000 g for 30 minutes. The supernatant (175 μL) was removed and the aggregate was re-suspended in 175 μL PBS and pelleted again before further preparation for gel analysis and spin-filter assisted digest for quantitative MS/MS.
The fibril-protein pellets were transferred to spin-filters (0.22 μm), washed twice in PBS (100 μL) and once in 1 M NaCl (100 μL). The fibrils and fibril-bound proteins were dissolved by one-hour incubation in 100 μL 6 M guanidinium chloride followed by elution from the spin-filter. […]
(§5) The micro-purified tryptic peptides were dissolved in 0.1% formic acid, injected and trapped on an in-house packed trap column (2 cm × 100 μm I.D) with RP ReproSil-Pur C18-AQ 3 μm resin (Dr. Maisch GmbH). […] Elution from the analytical column was performed with a linear gradient from 5% to 35% phase B (90% acetonitrile with 0.1% formic acid) over 20 min for protein identification and 50 min for quantitative analysis, respectively.
All samples were analysed three times, yielding nine MS/MS experiments for each fibril for both plasma and CSF. For the area-based extracted ion chromatogram (XIC) quantification, the acquisition method was set up as an information-dependent acquisition (IDA) experiment collecting up to 25 MS/MS spectra in each 1.6 sec cycle using an exclusion window of 6 sec. […]
XIC quantification was based on the average ion intensity of the three most abundant peptides for each protein. Only proteins quantified in at least four out of nine MS/MS experiments per fibril were included in the quantification. […]

The subject of series [20] is T5, Ab1 fibrils. As to the kind of experiment: Fibril incubation with CSF, quantitative MS/MS of bound proteins. Type of series: binding, human. As to conditions: 4:1 w/w CSF protein:fibril.
For series [21], the system named is T6, Ab2 fibrils. The description is as above. Type of series: binding, human. Particulars: 4:1 w/w CSF protein:fibril.
In series [22] the target is T3, glucagon fibrils. The series is described as above. It is filed as binding. As to conditions: 4:1 w/w CSF protein:fibril.
The target of series [23] is T1, C-36 fibrils. The series is described as above. As to conditions: 4:1 w/w CSF protein:fibril. It is filed as binding.
Series [24] concerns the target T2, αSN fibrils. The series is described as above. It is filed as binding. As to conditions: 4:1 w/w CSF protein:fibril.
In series [25] the test system is T7, FAS4-AD aggregates. Described as above. Type of series: binding, human. Particulars: symbol cells. Also on record: key to Identification status of CSF protein bound: FAS4-AD: *: Identified, but not quantified; —: Not identified in any of the samples.
The test system of series [26] is fibril systems (Ab1, Ab2, glucagon, αSN and C-36). As to the kind of experiment: Fibril incubation with CSF, quantitative MS/MS, span over the fibril systems. It is filed as binding, human. As to the method: as §4, with “MS/MS. […]” for “MS/MS.”
as §5
All samples were analysed three times, yielding nine MS/MS experiments for each fibril for both plasma and CSF. […]

The mark [27] stands for this setting: 7.5 μg fibril material, two-site binding model.

T3 sequence (P01275 53-81 limits assumed): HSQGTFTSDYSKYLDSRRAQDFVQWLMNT
Sequence of Ab2 fibrils (Aβ(1–40)) (P05067 672-711): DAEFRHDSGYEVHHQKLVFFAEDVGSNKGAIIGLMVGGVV
Sequence of Ab1 fibrils (Aβ(1–40)) (P05067 672-711): as above

As to `Cc1ccc2c(c1)sc(-c1ccc(N(C)C)cc1)[n+]2C` [ThT, Thioflavin T], the Imax1 in series [1] (setting [27]) and in series [2] (setting [27]) was 23,000 rfu throughout. The Imax2 in series [1] (setting [27]) was −22,000 rfu; in series [2] (setting [27]) it was −21,250 rfu. Moreover, the ThT fluorescence level in [1] (titration experiment) is 2–5,000 RFU; in series [2] (titration experiment), 2–5,000 RFU; in [3] (titration experiment), 12,500 RFU; in series [5], 2–5,000 RFU. Further, the “maximum ThT fluorescence intensity (Imax)” value in [3] (7.5 μg fibril material, single-site binding model) is recorded as 12,500 rfu; in series [6] it was 1,000 rfu. Besides, the Kd (as a rule, the concentration at which binding is half-saturated) came out at 630 nM in [3] (7.5 μg fibril material, single-site binding model, read-out: dissociation constant (kd)) and 1450 nM in [6] (read-out: dissociation constant (kd)). The ThT signal entry in series [4] was “did not result in any ThT signal”. Besides, in [7], the ThT fluorescence result is “did not detect any fluorescence”. The “Ligand bound (binding capacity)” value in series [8] was 42 nmol/mg fibril; in series [9], 35 nmol/mg fibril; in series [10], 10 nmol/mg fibril; in series [11] it was 18 nmol/mg fibril; in [12] it was 42 nmol/mg fibril.

For the molecule “Vitronectin: plasma/CSF protein bound to fibrils”, in [13], the “Relative composition of plasma proteins bound: Ab1” value is on record as 17.1 ± 1.9 % of total protein. Further, the “Relative composition of plasma proteins bound: Ab2” value in [14] was 12.1 ± 2.1 % of total protein. In addition, the “Relative composition of plasma proteins bound: Glucagon” value in [15] was 3.7 ± 0.1 % of total protein. In addition, the “Relative composition of plasma proteins bound: C-36” value in series [16] is on record as 4.9 ± 0.5 % of total protein. The “Relative composition of plasma proteins bound: αSN” value in [17] is reported as 9.3 ± 2.2 % of total protein. Further, the “Relative composition of plasma proteins bound: FAS4-AD” value in series [18] was 1.6 ± 0.4 % of total protein. In addition, the entries for the “contribution to the fibril interactomes” value in [19] and in series [26] were 3.7–17.1% and 0.2–3.6%, respectively. Also, the “Relative composition of CSF proteins bound: Ab1” value in [20] is on record as 1.1 ± 0.0 % of total protein. Moreover, the “Relative composition of CSF proteins bound: Ab2” value in series [21] is on record as 1.3 ± 0.3 % of total protein. In addition, the “Relative composition of CSF proteins bound: Glucagon” value in series [22] is on record as 0.2 ± 0.1 % of total protein. The “Relative composition of CSF proteins bound: C-36” value in series [23] is listed as 0.8 ± 0.1 % of total protein. The “Relative composition of CSF proteins bound: αSN” value in series [24] is given as 3.6 ± 0.2 % of total protein. In series [25], the “Identification status of CSF protein bound: FAS4-AD” value is recorded as “—”.
